The source of these data is US20040082635A1, “Fused cyclic compounds and medicinal use thereof” (priority 2001, published 2004).

This assay has as its target T1, HCV polymerase (Hepatitis C virus genotype 1b, UniProt P26663).
T1 construct: a region encoding NS5B (591 amino acids; J Virol 1991 Mar, 65(3), 1105-13) was amplified by PCR; 6 His (N); made in house; host or cells: Escherichia coli
Briefly: biochemical. The settings on record: read-out: HCV polymerase inhibitory activity IC50.

pIC50: −log10 of the molar value. Structures can show the parent of a compound that is named as a salt.

T1 sequence (P26663 2420-3010): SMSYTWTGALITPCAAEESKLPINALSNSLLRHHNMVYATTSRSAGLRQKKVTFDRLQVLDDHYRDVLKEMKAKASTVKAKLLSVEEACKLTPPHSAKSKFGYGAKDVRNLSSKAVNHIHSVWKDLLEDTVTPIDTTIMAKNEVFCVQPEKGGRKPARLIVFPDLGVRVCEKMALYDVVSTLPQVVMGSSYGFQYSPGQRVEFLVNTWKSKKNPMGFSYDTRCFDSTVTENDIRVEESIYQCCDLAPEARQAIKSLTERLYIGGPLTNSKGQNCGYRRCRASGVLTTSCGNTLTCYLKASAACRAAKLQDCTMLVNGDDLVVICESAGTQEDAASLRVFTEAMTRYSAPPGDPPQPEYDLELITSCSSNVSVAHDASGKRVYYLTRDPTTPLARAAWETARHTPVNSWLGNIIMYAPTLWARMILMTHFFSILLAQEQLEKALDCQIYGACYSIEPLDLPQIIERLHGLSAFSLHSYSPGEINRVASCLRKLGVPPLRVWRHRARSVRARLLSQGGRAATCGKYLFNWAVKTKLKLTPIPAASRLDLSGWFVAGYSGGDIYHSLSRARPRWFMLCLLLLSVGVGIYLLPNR

Regarding `O=C(O)c1ccc2c(c1)nc(-c1ccc(Oc3cccc(-c4cccnc4)c3)cc1)n2C1CCCCC1` [Example 214, 1-cyclohexyl-2-{4-[3-(3-pyridyl)phenoxy]phenyl}benzimidazole-5-carboxylic acid], the pIC50 – broadly, −log10 of the IC50, conventionally taken in molar units – was 7.23.
With `O=C(O)c1ccc2c(c1)nc(-c1ccc(OC(c3ccccc3)c3ccccc3)cc1)n2C1CCCC1` [Example 70, 1-cyclopentyl-2-[4-(diphenylmethoxy)phenyl]benzimidazole-5-carboxylic acid] the figure was 6.72; with `CN(C)C(=O)Nc1ccc(-c2ccc(Cl)cc2)c(COc2ccc(-c3nc4cc(C(=O)O)ccc4n3C3CCCCC3)c(F)c2)c1` [Example 391, 2-{4-[2-(4-chlorophenyl)-5-{(dimethylcarbamoyl)amino}benzyloxy]-2-fluorophenyl}-1-cyclohexylbenzimidazole-5-carboxylic acid hydrochloride], 7.77; with `O=C(O)c1ccc2c(c1)nc(-c1ccc(Oc3cc(OCc4ccncc4)ncn3)cc1)n2C1CCCCC1` [Example 239, 1-cyclohexyl-2-{4-[4-(4-pyridylmethoxy)-6-pyrimidinyloxy]phenyl}-benzimidazole-5-carboxylic acid], 6.77.
As for `O=C(O)c1ccc2c(c1)nc(-c1ccc(OCc3cc(C(=O)NC4CCC4)ccc3-c3ccc(Cl)cc3)cc1F)n2C1CCCCC1` [Example 378, 2-{4-[2-(4-chlorophenyl)-5-(cyclobutylcarbamoyl)benzyloxy]-2-fluorophenyl}-1-cyclohexylbenzimidazole-5-carboxylic acid hydrochloride], the figure is 7.74.
With `O=C(O)c1ccc2c(c1)nc(-c1ccc(Oc3cccc(OC4CCOCC4)c3)cc1)n2C1CCCCC1` [Example 209, 1-cyclohexyl-2-{4-[3-(4-tetrahydropyranyloxy)phenoxy]phenyl}-benzimidazole-5-carboxylic acid], the pIC50 is 6.92.
With `CN(C)C(=O)c1ccc(-c2ccc(Cl)cc2)c(COc2ccc(-c3nc4cc(C(=O)O)ccc4n3C3CCCC3)cc2)c1` [Example 414, 2-{4-[2-(4-chlorophenyl)-5-(dimethylcarbamoyl)benzyloxy]phenyl}-1-cyclopentylbenzimidazole-5-carboxylic acid hydrochloride] the figure was 7.62.
With `Cc1cnc(-c2ccc(-c3ccc(Cl)cc3)c(COc3ccc(-c4nc5cc(C(=O)O)ccc5n4C4CCCCC4)cc3)c2)s1` [Example 366, 2-{4-[2-(4-chlorophenyl)-5-(5-methylthiazol-2-yl)benzyloxy]-phenyl}-1-cyclohexylbenzimidazole-5-carboxylic acid hydrochloride] the figure was 7.62.
As for `O=C(O)c1ccc2c(c1)nc(-c1ccc(OCc3cc(-c4nnn[nH]4)ccc3-c3ccc(Cl)cc3)cc1)n2C1CCCCC1` [Example 367, 2-{4-[2-(4-chlorophenyl)-5-tetrazol-5-ylbenzyloxy]phenyl}-1-cyclohexylbenzimidazole-5-carboxylic acid hydrochloride], the figure is 7.96.
`O=C(O)c1cccc(-c2ccc(Cl)cc2COc2ccc(-c3nc4cc(C(=O)O)ccc4n3C3CCCCC3)cc2)c1` [Example 296, 2-{4-[2-(3-carboxyphenyl)-5-chlorobenzyloxy]phenyl}-1-cyclohexylbenzimidazole-5-carboxylic acid]: the pIC50 was 7.47.
Consider `CNC(=O)c1nc(-c2ccc(F)cc2)c(COc2ccc(-c3nc4cc(C(=O)O)ccc4n3C3CCCCC3)c(F)c2)s1` [Example 429, 2-{4-[{4-(4-fluorophenyl)-2-(methylcarbamoyl)thiazol-5-yl}methoxy]-2-fluorophenyl}-1-cyclohexylbenzimidazole-5-carboxylic acid hydrochloride], for which the pIC50 is 7.77.
With `O=C(O)COc1ccccc1Oc1ccc(-c2nc3cc(C(=O)O)ccc3n2C2CCCCC2)cc1` [Example 140, 2-[4-(2-carboxymethyloxyphenoxy)phenyl]-1-cyclohexylbenzimidazole-5-carboxylic acid], the negative logarithm of the IC50 (pIC50) is 6.96.
With `CC(C)CCOc1ccccc1Oc1ccc(-c2nc3cc(C(=O)O)ccc3n2C2CCCCC2)cc1` [Example 114, 1-cyclohexyl-2-[4-(2-isopentyloxyphenoxy)phenyl]benzimidazole-5-carboxylic acid] the figure was 6.25.
On to `O=C(O)c1ccc2c(c1)nc(-c1ccc(Oc3cccc(OCc4ccccc4)c3)cc1)n2C1CCCCC1` [Example 105, 2-[4-(3-benzyloxyphenoxy)phenyl]-1-cyclohexylbenzimidazole-5-carboxylic acid], for which the pIC50 was 7.12.
With `O=C(O)c1ccc2c(c1)nc(-c1ccc(OC3CCCN(Cc4ccc(Cl)cc4)C3)cc1)n2C1CCCCC1` (stereo not drawn) [Example 219, 2-{4-[1-(4-chlorobenzyl)-3-piperidyloxy]phenyl}-1-cyclohexylbenzimidazole-5-carboxylic acid] the figure was 6.89; with `O=C(O)c1ccc2c(c1)nc(-c1ccc(OCc3ccc(Cl)s3)cc1)n2C1CCCC1` [Example 46, 2-{4-[(2-chloro-5-thienyl)methoxy]phenyl}-1-cyclopentylbenzimidazole-5-carboxylic acid], 6.33.
As for `O=C(O)c1ccc2c(c1)nc(-c1ccc(OCc3cc(N4CCCC4=O)ccc3-c3ccc(Cl)cc3)cc1F)n2C1CCSCC1` [Example 419, 2-{4-[2-(4-chlorophenyl)-5-(2-oxopyrrolidin-1-yl)benzyloxy]-2-fluorophenyl}-1-(tetrahydrothiopyran-4-yl)benzimidazole-5-carboxylic acid hydrochloride], the figure is 7.68; as for `CN(C)C(=O)c1ccc(-c2cccc(F)c2)c(COc2ccc(-c3nc4cc(C(=O)O)ccc4n3C3CCCCC3)cc2)c1` [Example 361, 2-{4-[5-(dimethylcarbamoyl)-2-(3-fluorophenyl)benzyloxy]phenyl}-1-cyclohexylbenzimidazole-5-carboxylic acid hydrochloride], 7.55.
With `O=C(O)c1ccc2c(c1)nc(-c1ccc(OCc3cc(Cl)cc(Cl)c3)cc1)n2C1CCCCC1` [Example 81, 1-cyclohexyl-2-[4-(3,5-dichlorobenzyloxy)phenyl]benzimidazole-5-carboxylic acid] the figure was 6.74; with `O=C(O)c1ccc2c(c1)nc(-c1ccc(OCc3cc(N4CCCCC4=O)ccc3-c3ccc(Cl)cc3)cc1F)n2C1CCCCC1` [Example 371, 2-{4-[2-(4-chlorophenyl)-5-(2-oxopiperidin-1-yl)benzyloxy]-2-fluorophenyl}-1-cyclohexylbenzimidazole-5-carboxylic acid hydrochloride], 7.82; with `C[C@@H]1CCC[C@H](C)N1C(=O)c1ccc(-c2ccc(Cl)cc2)c(COc2ccc(-c3nc4cc(C(=O)O)ccc4n3C3CCCCC3)c(F)c2)c1` [Example 387, 2-{4-[2-(4-chlorophenyl)-5-(2,6-dimethylpiperidin-1-ylcarbonyl)-benzyloxy]-2-fluorophenyl}-1-cyclohexylbenzimidazole-5-carboxylic acid hydrochloride], 7.60.
As to `CN(C)C(=O)c1ccc(-c2cccnc2)c(COc2ccc(-c3nc4cc(C(=O)O)ccc4n3C3CCCCC3)cc2)c1` [Example 272, 2-{4-[3-dimethylcarbamoyl-6-(3-pyridyl)benzyloxy]phenyl}-1-cyclohexylbenzimidazole-5-carboxylic acid dihydrochloride], the pIC50 was 7.18.
With `COc1ccc(CCOc2ccc(-c3nc4cc(C(=O)O)ccc4n3C3CCCCC3)cc2)cc1` [Example 119, 1-cyclohexyl-2-{4-[2-(4-methoxyphenyl)ethoxy]phenyl}-benzimidazole-5-carboxylic acid] the figure was 6.89; with `COCCOc1ccc(-c2ccc(Cl)cc2)c(COc2ccc(-c3nc4cc(C(=O)O)ccc4n3C3CCCCC3)cc2)c1` [Example 344, 2-{4-[2-(4-chlorophenyl)-5-(2-methoxyethoxy)benzyloxy]phenyl}-1-cyclohexylbenzimidazole-5-carboxylic acid hydrochloride], 7.80; with `O=C(O)c1ccc2c(c1)nc(-c1ccc(Oc3cccc(-c4ccc(Cl)cc4)c3)cc1)n2C1CCCCC1` [Example 215, 2-{4-[3-(4-chlorophenyl)phenoxy]phenyl}-1-cyclohexylbenzimidazole-5-carboxylic acid], 7.11.
As for `CCN(c1ccc(-c2ccc(Cl)cc2)c(COc2ccc(-c3nc4cc(C(=O)O)ccc4n3C3CCCCC3)c(F)c2)c1)S(=O)(=O)CC` [Example 465, 2-[4-{2-(4-chlorophenyl)-5-[N-ethyl-N-(ethylsulfonyl)amino]-benzyloxy}-2-fluorophenyl]-1-cyclohexylbenzimidazole-5-carboxylic acid hydrochloride], the figure is 7.48; as for `O=C(O)c1ccc2c(c1)nc(-c1ccc(OCc3ccccc3-c3ccccc3)cc1)n2C1CCCCC1` [Example 88, 2-[4-(2-biphenylylmethoxy)phenyl]-1-cyclohexylbenzimidazole-5-carboxylic acid], 7.04.
For the molecule `CC(C)NC(=O)c1ccc(-c2ccc(Cl)cc2)c(COc2ccc(-c3nc4cc(C(=O)O)ccc4n3C3CCCC3)c(F)c2)c1` [Example 412, 2-{4-[2-(4-chlorophenyl)-5-(isopropylcarbamoyl)benzyloxy]-2-fluorophenyl}-1-cyclopentylbenzimidazole-5-carboxylic acid hydrochloride], the pIC50 was 7.72.
As for `O=C(O)c1ccc2c(c1)nc(-c1ccc(OC(c3ccc(F)cc3)c3ccc(F)cc3)cc1F)n2C1CCCCC1` [Example 148, 2-{4-[bis(4-fluorophenyl)methoxy]-2-fluorophenyl}-1-cyclohexylbenzimidazole-5-carboxylic acid], the figure is 7.42; as for `O=C(O)c1ccc2c(c1)nc(-c1ccc(OCc3cc(N4CCOC4=O)ccc3-c3ccc(Cl)cc3)cc1F)n2C1CCCCC1` [Example 423, 2-{4-[2-(4-chlorophenyl)-5-(2-oxooxazolidin-3-yl)benzyloxy]-2-fluorophenyl}-1-cyclohexylbenzimidazole-5-carboxylic acid hydrochloride], 7.77.
